Reference: patent publication US6737383B1, “Herbicidal oxadiazolidines” (priority 1999, dated 2004)

How the values were obtained:
bedstraw = test: Test B pre/postemergence bedstraw; type: in vivo, Galium aparine
In short: (§1)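 Response is a visual 0-to-10 score relative to untreated plants, where 0 means no effect and 10 means complete control, taken twelve to sixteen days after application. Treatments went onto soil at planting and onto foliage of 1- to 4-leaf plants, using a surfactant-containing non-phytotoxic solvent.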

surinam grass = test: Test B pre/postemergence surinam grass; type: in vivo, Brachiaria decumbens
In short: as §1

cocklebur = test: Test B pre/postemergence cocklebur; type: in vivo, Xanthium strumarium
In short: as §1

corn = test: Test B pre/postemergence corn; type: in vivo, Zea mays
In short: as §1

crabgrass = test: Test B pre/postemergence crabgrass; type: in vivo, Digitaria sanguinalis
In short: as §1

giant foxtail = test: Test B pre/postemergence giant foxtail; type: in vivo, Setaria faberii
In short: as §1

morningglory = test: Test B pre/postemergence morningglory; type: in vivo, Ipomoea hederacea
In short: as §1

pigweed = test: Test B pre/postemergence pigweed; type: in vivo, Amaranthus retroflexus
In short: as §1

rape = test: Test B pre/postemergence rape; type: in vivo, Brassica napus
In short: as §1

soybean = test: Test B pre/postemergence soybean; type: in vivo, Glycine max
In short: as §1

sugar beet = test: Test B pre/postemergence sugar beet; type: in vivo, Beta vulgaris
In short: as §1

velvetleaf = test: Test B pre/postemergence velvetleaf; type: in vivo, Abutilon theophrasti
In short: as §1

wheat = test: Test B pre/postemergence wheat; type: in vivo, Triticum aestivum
In short: as §1

purple nutsedge = test: Test B pre/postemergence purple nutsedge; type: in vivo, Cyperus rotundus
In short: as §1

duck salad = test: Test B flood test duck salad; type: in vivo, Heteranthera limosa
In short: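 Plants were grown to the 2-leaf stage before treatment with test chemical, then held in a greenhouse for twelve to sixteen days. Injury was visually rated against untreated controls on a 0–10 scale, where 0 is no effect and 10 is complete control.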

[1] = Preemergence, Rate 31 g/ha, visual rating, scale 0 to 10 (0 no effect, 10 complete control)
[2] = Preemergence, Rate 62 g/ha, scale of 0 to 10 where 0 is no effect and 10 is complete control
[3] = Preemergence, Rate 250 g/ha, scale of 0 to 10 where 0 is no effect and 10 is complete control
[4] = Rate 31 g/ha, Postemergence, scale 0 to 10
[5] = Rate 62 g/ha, Postemergence, scale of 0 to 10 where 0 is no effect and 10 is complete control
[6] = Rate 125 g/ha, Postemergence, scale 0 to 10
[7] = Rate 125 g/ha, Preemergence, scale of 0 to 10 where 0 is no effect and 10 is complete control

CC(=O)Cn1c(=O)on(C(=O)N(c2ccc(F)cc2)C(C)C)c1=O [Compound 217]
10: Giant foxtail plant response rating (giant foxtail; [3]) | Redroot pigweed plant response rating (pigweed; [3])
3: Crabgrass plant response rating (crabgrass; [2]) | Plant response rating (0 to 10; 0 is no effect, 10 is complete control), Crabgrass (crabgrass; Rate 250 g/ha, Postemergence) | Giant foxtail plant response rating (giant foxtail; [1]) | Wheat plant response rating (wheat; [7]) | Plant response rating (0 to 10; 0 is no effect, 10 is complete control), Wheat (wheat; Rate 250 g/ha, Postemergence)
6: Giant foxtail plant response rating (giant foxtail; [2])
5: Redroot pigweed plant response rating (pigweed; [7]) | Velvetleaf plant response rating (velvetleaf; [3])
4: Crabgrass plant response rating (crabgrass; [7]) | Rape plant response rating (rape; [3])
7: B. signalgrass plant response rating (surinam grass; Rate 125 g/ha, Postemergence, scale 0 (no effect) to 10 (complete control)) | Plant response rating (0 to 10; 0 is no effect, 10 is complete control), B. signalgrass (surinam grass; Rate 250 g/ha, Postemergence) | Plant response rating (0 to 10; 0 is no effect, 10 is complete control), Giant foxtail (giant foxtail; Rate 250 g/ha, Postemergence)
8: Crabgrass plant response rating (crabgrass; [3]) | Giant foxtail plant response rating (giant foxtail; [7]) | Wheat plant response rating (wheat; [3])
2: Crabgrass plant response rating (crabgrass; [6]) | Giant foxtail plant response rating (giant foxtail; [6]) | Wheat plant response rating (wheat; [6])
1: Giant foxtail plant response rating (giant foxtail; [5]) | Soybean plant response rating (soybean; [5]) | Soybean plant response rating (soybean; [6]) | Plant response rating (0 to 10; 0 is no effect, 10 is complete control), Soybean (soybean; Rate 250 g/ha, Postemergence) | Velvetleaf plant response rating (velvetleaf; [7])
0: Bedstraw plant response rating (bedstraw; [1]) | Bedstraw plant response rating (bedstraw; [2]) | Bedstraw plant response rating (bedstraw; [3]) | Bedstraw plant response rating (bedstraw; [4]) | Bedstraw plant response rating (bedstraw; [5]) | Bedstraw plant response rating (bedstraw; [6]) | Bedstraw plant response rating (bedstraw; [7]) | Plant response rating (0 to 10; 0 is no effect, 10 is complete control), Bedstraw (bedstraw; Rate 250 g/ha, Postemergence) | B. signalgrass plant response rating (surinam grass; [1]) | B. signalgrass plant response rating (surinam grass; [2]) | B. signalgrass plant response rating (surinam grass; Preemergence, Rate 250 g/ha, scale 0 to 10, 0 is no effect, 10 is complete control) | B. signalgrass plant response rating (surinam grass; [4]) | B. signalgrass plant response rating (surinam grass; [5]) | B. signalgrass plant response rating (surinam grass; [7]) | Cocklebur plant response rating (cocklebur; [1]) | Cocklebur plant response rating (cocklebur; [2]) | Cocklebur plant response rating (cocklebur; [3]) | Cocklebur plant response rating (cocklebur; [4]) | Cocklebur plant response rating (cocklebur; [5]) | Cocklebur plant response rating (cocklebur; [6]) | Cocklebur plant response rating (cocklebur; [7]) | Plant response rating (0 to 10; 0 is no effect, 10 is complete control), Cocklebur (cocklebur; Rate 250 g/ha, Postemergence) | Corn plant response rating (corn; [1]) | Corn plant response rating (corn; [2]) | Corn plant response rating (corn; [3]) | Corn plant response rating (corn; [4]) | Corn plant response rating (corn; [5]) | Corn plant response rating (corn; [6]) | Corn plant response rating (corn; [7]) | Plant response rating (0 to 10; 0 is no effect, 10 is complete control), Corn (corn; Rate 250 g/ha, Postemergence) | Crabgrass plant response rating (crabgrass; [1]) | Crabgrass plant response rating (crabgrass; [4]) | Crabgrass plant response rating (crabgrass; [5]) | Giant foxtail plant response rating (giant foxtail; [4]) | Morningglory plant response rating (morningglory; [1]) | Morningglory plant response rating (morningglory; [2]) | Morningglory plant response rating (morningglory; [3]) | Morningglory plant response rating (morningglory; [4]) | Morningglory plant response rating (morningglory; [5]) | Morningglory plant response rating (morningglory; [6]) | Morningglory plant response rating (morningglory; [7]) | Plant response rating (0 to 10; 0 is no effect, 10 is complete control), Morningglory (morningglory; Rate 250 g/ha, Postemergence) | Redroot pigweed plant response rating (pigweed; [1]) | Redroot pigweed plant response rating (pigweed; [2]) | Redroot pigweed plant response rating (pigweed; [4]) | Redroot pigweed plant response rating (pigweed; [5]) | Redroot pigweed plant response rating (pigweed; [6]) | Plant response rating (0 to 10; 0 is no effect, 10 is complete control), Redroot pigweed (pigweed; Rate 250 g/ha, Postemergence) | Rape plant response rating (rape; [1]) | Rape plant response rating (rape; [2]) | Rape plant response rating (rape; [4]) | Rape plant response rating (rape; [5]) | Rape plant response rating (rape; [6]) | Rape plant response rating (rape; [7]) | Plant response rating (0 to 10; 0 is no effect, 10 is complete control), Rape (rape; Rate 250 g/ha, Postemergence) | Soybean plant response rating (soybean; [1]) | Soybean plant response rating (soybean; [2]) | Soybean plant response rating (soybean; [3]) | Soybean plant response rating (soybean; [7]) | Sugarbeets plant response rating (sugar beet; [1]) | Sugarbeets plant response rating (sugar beet; [2]) | Sugarbeets plant response rating (sugar beet; [3]) | Sugarbeets plant response rating (sugar beet; [5]) | Sugarbeets plant response rating (sugar beet; [6]) | Sugarbeets plant response rating (sugar beet; [7]) | Plant response rating (0 to 10; 0 is no effect, 10 is complete control), Sugarbeets (sugar beet; Rate 250 g/ha, Postemergence) | Velvetleaf plant response rating (velvetleaf; [1]) | Velvetleaf plant response rating (velvetleaf; [2]) | Velvetleaf plant response rating (velvetleaf; [5]) | Velvetleaf plant response rating (velvetleaf; [6]) | Plant response rating (0 to 10; 0 is no effect, 10 is complete control), Velvetleaf (velvetleaf; Rate 250 g/ha, Postemergence) | Wheat plant response rating (wheat; [1]) | Wheat plant response rating (wheat; [2]) | Wheat plant response rating (wheat; [5]) | Nutsedge plant response rating (purple nutsedge; [1]) | Nutsedge plant response rating (purple nutsedge; [2]) | Nutsedge plant response rating (purple nutsedge; [3]) | Nutsedge plant response rating (purple nutsedge; [4]) | Nutsedge plant response rating (purple nutsedge; [5]) | Nutsedge plant response rating (purple nutsedge; [6]) | Nutsedge plant response rating (purple nutsedge; [7]) | Plant response rating (0 to 10; 0 is no effect, 10 is complete control), Nutsedge (purple nutsedge; Rate 250 g/ha, Postemergence) | Ducksalad plant response rating (duck salad; Rate 31 g/ha, Pre-emergence section (flood test species), scale 0 to 10) | Ducksalad plant response rating (duck salad; Rate 62 g/ha, headed Pre-emergence (flood test species), scale 0 to 10 (0 no effect, 10 complete control)) | Ducksalad plant response rating (duck salad; Rate 125 g/ha, Pre-emergence, flood test species, scale 0 to 10 where 0 is no effect and 10 is complete control) | Ducksalad plant response rating (duck salad; Rate 250 g/ha, Pre-emergence, flood-test species, scale 0 to 10, 0 is no effect, 10 is complete control)
